What was measured:
Format in all cases: biochemical
[1] = molecular target: T1, 1-aminocyclopropane-1-carboxylic acid oxidase (ACCO1) (Malus domestica, UniProt Q00985); experiment: steady-state kinetics, competitive activation (Ka), double reciprocal plot; set-up: purified recombinant ACCO
[2] = molecular target: T1, 1-aminocyclopropane-1-carboxylic acid oxidase (ACCO1); experiment: steady-state kinetics, ethylene assay by GC; set-up: purified ACCO fusion protein
[3] = molecular target: T1, 1-aminocyclopropane-1-carboxylic acid oxidase (ACCO1); experiment: steady-state kinetics (data not shown)
[4] = molecular target: T1, 1-aminocyclopropane-1-carboxylic acid oxidase (ACCO1); experiment: steady-state kinetics, ethylene assay by GC, double reciprocal plot; UV/Vis spectrum; set-up: His-Tag fusion protein expressed in E. coli

T1 sequence (Q00985 whole entry, the tested form may be a part): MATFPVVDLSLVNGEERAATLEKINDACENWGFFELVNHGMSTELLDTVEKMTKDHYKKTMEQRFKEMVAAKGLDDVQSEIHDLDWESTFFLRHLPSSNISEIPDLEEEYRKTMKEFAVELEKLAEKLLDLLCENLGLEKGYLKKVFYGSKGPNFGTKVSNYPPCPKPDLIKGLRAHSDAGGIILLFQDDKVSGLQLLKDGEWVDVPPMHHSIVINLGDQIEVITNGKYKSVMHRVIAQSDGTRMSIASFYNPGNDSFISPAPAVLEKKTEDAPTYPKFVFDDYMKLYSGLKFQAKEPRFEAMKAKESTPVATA

SMILES: O=c1[nH]c(=O)c2nccnc2[nH]1 [2,4-pteridinediol]
- steady-state kinetics, competitive activation (Ka), double reciprocal plot [1]: 2.2 mM

SMILES: O=C(O)[C@@H](O)[C@H]1OC(=O)[C@H](O)[C@H]1O [D-Saccharic acid 1,4-lactone]
- Ki [2]: 300 µM

SMILES: O=C(O)CC(=O)O [Malonic acid]
- Ki [3]: 70 µM

SMILES: O=C(O)CC(=O)C(=O)O [Oxaloacetic acid]
- Ki [3]: 930 µM

SMILES: Cc1ncc(COP(=O)(O)O)c(C=O)c1O [Pyridoxal-5′-phosphate]
- Ki [4]: 200 µM
